Assay results published in patent publication US11173151B2, “Substituted triazole derivatives and uses thereof” (BAYER AKTIENGESELLSCHAFT, priority 2017, dated 2021).

Tests used:
human V2 receptor = target: T1, human V2 receptor (Homo sapiens, UniProt P30518); assay: Cellular in vitro assay for determining vasopressin receptor activity, V2 receptor cell line (CHO, CRE-luciferase); format: cell-based; conditions: CHO cell line transfected with human V2 receptor; [Arg8]-vasopressin at EC50 concentration; read-out: IC50 hV2
T1 construct: expressed in transfected cells; host or cells: CHO K1 (ATCC) expressing firefly luciferase under a CRE-responsive promoter
T1 sequence (P30518 whole entry): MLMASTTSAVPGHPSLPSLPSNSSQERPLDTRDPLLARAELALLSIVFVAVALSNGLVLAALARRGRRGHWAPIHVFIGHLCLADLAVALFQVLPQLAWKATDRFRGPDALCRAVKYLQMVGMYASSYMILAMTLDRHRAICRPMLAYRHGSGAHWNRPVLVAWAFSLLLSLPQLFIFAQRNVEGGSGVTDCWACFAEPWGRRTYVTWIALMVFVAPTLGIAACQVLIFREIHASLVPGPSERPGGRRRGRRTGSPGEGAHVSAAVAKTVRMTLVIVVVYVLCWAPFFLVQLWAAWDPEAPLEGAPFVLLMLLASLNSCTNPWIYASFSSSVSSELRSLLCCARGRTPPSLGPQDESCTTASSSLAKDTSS

human V1a receptor = target: T2, human V1a receptor (Homo sapiens, UniProt P37288); assay: Cellular in vitro assay for determining vasopressin receptor activity, V1a receptor cell line (CHO, aequorin luminescence); format: cell-based; conditions: for IC50: CHO cell line transfected with human V1a receptor, [Arg]-vasopressin at EC50 concentration, read-out: IC50 hV1a; for ratio IC50 hV2/hV1a: selectivity ratio IC50 hV2 / IC50 hV1a
T2 construct: expressed in transfected cells; host or cells: CHO K1 (ATCC), also stably transfected with a modified aequorin
T2 sequence (P37288 whole entry): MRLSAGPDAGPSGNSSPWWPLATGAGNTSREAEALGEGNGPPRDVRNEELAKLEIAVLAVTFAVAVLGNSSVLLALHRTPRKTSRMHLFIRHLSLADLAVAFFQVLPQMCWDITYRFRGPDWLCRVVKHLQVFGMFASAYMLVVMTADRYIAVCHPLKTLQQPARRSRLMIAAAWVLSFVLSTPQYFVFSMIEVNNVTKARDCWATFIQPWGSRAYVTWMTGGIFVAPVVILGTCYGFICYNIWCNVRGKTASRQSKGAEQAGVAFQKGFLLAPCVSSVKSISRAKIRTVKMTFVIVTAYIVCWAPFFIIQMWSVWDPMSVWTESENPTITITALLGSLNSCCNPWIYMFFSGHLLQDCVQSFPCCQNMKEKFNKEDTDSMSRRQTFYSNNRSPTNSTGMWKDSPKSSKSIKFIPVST
Outline: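 Cells were plated the day before in medium containing 5 μg/ml coelenterazine and kept at 37° C. Compounds at various concentrations were then added for 10 minutes. Next, [Arg]-vasopressin at EC50 was applied and light output recorded at once, yielding IC50.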

IC50 (human V2 receptor) [µM] | IC50 (human V1a receptor) [µM] | ratio IC50 hV2/hV1a (human V1a receptor) | SMILES
32 | 0.46 | 69.6 | O=C(c1ncccc1-n1cnc(Cn2nc(-c3ccc(Cl)cc3)n(C[C@@H](O)C(F)(F)F)c2=O)n1)N1CCC(C(F)(F)F)C1 (mixture of isomers) [Example 480, 5-(4-Chlorophenyl)-4-[(2R)-3,3,3-trifluoro-2-hydroxypropyl]-2-{[1-(2-{[3-(trifluoromethyl)pyrrolidin-1-yl]carbonyl}pyridin-3-yl)-1H-1,2,4-triazol-3-yl]methyl}-2,4-dihydro-3H-1,2,4-triazol-3-one]
5 | 0.23 | 21.7 | O=C(NCC(O)C(F)(F)F)c1ncccc1-n1cnc(Cn2nc(-c3ccc(Cl)cc3)n(C[C@@H](O)C(F)(F)F)c2=O)n1 (mixture of isomers) [Example 485, 3-[3-({3-(4-Chlorophenyl)-5-oxo-4-[(2R)-3,3,3-trifluoro-2-hydroxypropyl]-4,5-dihydro-1H-1,2,4-triazol-1-yl}methyl)-1H-1,2,4-triazol-1-yl]-N-[3,3,3-trifluoro-2-hydroxypropyl]pyridine-2-carboxamide]
7.3 | 0.0135 | 540.7 | COCC1CCCN1C(=O)c1ccncc1-n1cnc(Cn2nc(-c3ccc(Cl)cc3)n(C[C@H](O)C(F)(F)F)c2=O)n1 (mixture of isomers) [Example 493, 5-(4-Chlorophenyl)-2-{[1-(4-{[2-(methoxymethyl)pyrrolidin-1-yl]carbonyl}pyridin-3-yl)-1H-1,2,4-triazol-3-yl]methyl}-4-[(2S)-3,3,3-trifluoro-2-hydroxypropyl]-2,4-dihydro-3H-1,2,4-triazol-3-one]

The next lines start with the compound.

SMILES | IC50 (human V2 receptor) [µM] | IC50 (human V1a receptor) [µM] | ratio IC50 hV2/hV1a (human V1a receptor)
O=C(c1ncccc1-n1cnc(Cn2nc(-c3ccc(Cl)cc3)n(C[C@H](O)C(F)(F)F)c2=O)n1)N1CCC(C(F)(F)F)C1 (mixture of isomers) [Example 449, 5-(4-Chlorophenyl)-4-[(2S)-3,3,3-trifluoro-2-hydroxypropyl]-2-{[1-(2-{[3-(trifluoromethyl)pyrrolidin-1-yl]carbonyl}pyridin-3-yl)-1H-1,2,4-triazol-3-yl]methyl}-2,4-dihydro-3H-1,2,4-triazol-3-one] | 3.35 | 0.2 | 16.8
NC(=O)C1CCCN1C(=O)c1ncccc1-n1cnc(Cn2nc(-c3ccc(Cl)cc3)n(C[C@@H](O)C(F)(F)F)c2=O)n1 (mixture of isomers) [Example 467, 1-({3-[3-({3-(4-chlorophenyl)-5-oxo-4-[(2R)-3,3,3-trifluoro-2-hydroxypropyl]-4,5-dihydro-1H-1,2,4-triazol-1-yl}methyl)-1H-1,2,4-triazol-1-yl]pyridin-2-yl}carbonyl)-prolinamide] | 32 | 0.62 | 51.6
NC(CNC(=O)c1ncccc1-n1cnc(Cn2nc(-c3ccc(Cl)cc3)n(C[C@@H](O)C(F)(F)F)c2=O)n1)C(F)(F)F (mixture of isomers) [Example 484, N-[2-Amino-3,3,3-trifluoropropyl]-3-[3-({3-(4-chlorophenyl)-5-oxo-4-[(2R)-3,3,3-trifluoro-2-hydroxypropyl]-4,5-dihydro-1H-1,2,4-triazol-1-yl}methyl)-1H-1,2,4-triazol-1-yl]pyridine-2-carboxamide] | 9.4 | 0.21 | 44.8
O=C(NC1CC1F)c1cccnc1-n1cnc(Cn2nc(-c3ccc(Cl)cc3)n(C[C@H](O)C(F)(F)F)c2=O)n1 (mixture of isomers) [Example 503] | 0.215 | 0.00555 | 38.7
